Test results taken from patent US20040038233A1, “Diagnosis kit for mycobacterium species indentification and drug-resistance detection and manufacturing method thereof” (priority 2000, published 2004).
Like-named read-outs stand apart in the source and are kept apart here.

Assays:
[1] = test system: Mycobacterium tuberculosis rpoB gene mutants; parameters: key to DRUG-SUSCEPTIBILITY: R represents resistance; S represents susceptibility; conditions: cited from earlier work
[2] = test system: Mycobacterium tuberculosis; assay type: cell-based

Structure (SMILES)	DRUG-SUSCEPTIBILITY ([1]; 509 MUTANT (probe Mt509))	DRUG-SUSCEPTIBILITY ([1]; 509 WILD TYPE (probe Wt509))	DRUG-SUSCEPTIBILITY ([1]; 524 MUTANT (probe Mt524))	DRUG-SUSCEPTIBILITY ([1]; 524 WILD TYPE (probe Wt524))	DRUG-SUSCEPTIBILITY ([1]; 533 MUTANT (probe Mt533))	DRUG-SUSCEPTIBILITY ([1]; 533 WILD TYPE (probe Wt533))	drug-susceptibility of codon 526 mutants ([1]; codon 526 His>Gln, Gly, Asn, Ala, or Cys)	drug-susceptibility of codon 526 mutants ([1]; codon 526 His>Tyr, Pro, Arg, or Asp)	drug-susceptibility test result [2]
CO[C@H]1/C=C/O[C@@]2(C)Oc3c(C)c(O)c4c(c3C2=O)C2=NC3(CCN(CC(C)C)CC3)NC2=C(NC(=O)/C(C)=C\C=C\[C@H](C)[C@H](O)[C@@H](C)[C@@H](O)[C@@H](C)[C@H](OC(C)=O)[C@@H]1C)C4=O [rifabutin, Rifabutin]	S	RFP-S, RBU-S	RFP-R, RBU-R	RFP-S, RBU-S	RFP-R, RBU-R	RFP-S, RBU-S	susceptibility	resistance	
CO[C@H]1/C=C/O[C@@]2(C)Oc3c(C)c(O)c4c(O)c(c(/C=N/N5CCN(C)CC5)c(O)c4c3C2=O)NC(=O)/C(C)=C\C=C\[C@H](C)[C@H](O)[C@@H](C)[C@@H](O)[C@@H](C)[C@H](OC(C)=O)[C@@H]1C [rifampin]	R	RFP-S, RBU-S	RFP-R, RBU-R	RFP-S, RBU-S	RFP-R, RBU-R	RFP-S, RBU-S			resistance
